{"source": "ChEMBL document CHEMBL3045862", "about": "“PRE-CLINICAL AND CLINICAL PHARMACOKINETICS OF THE DIASTEREOMERS OF ARTEETHER, A POTENT ANTIMALARIAL” (Med Chem Res, 2004)", "key": {"[1]": {"assay": "Clearance in Rattus norvegicus Sprague-Dawley (rat) at 9 mg/kg, administered intramuscularly", "format": "ADME, organism-based", "design": "dose 9 mg/kg, route intramuscular", "settings": "Sprague-Dawley, in vivo, im"}, "[2]": {"assay": "Tmax in Rattus norvegicus Sprague-Dawley (rat) at 30 mg/kg, po", "format": "ADME, organism-based", "design": "dose 30 mg/kg, route oral", "settings": "in vivo"}, "[3]": {"assay": "Cmax in Rattus norvegicus Sprague-Dawley (rat) at 9 mg/kg, administered intramuscularly", "format": "ADME, organism-based", "design": "dose 9 mg/kg, route intramuscular", "settings": "in vivo, im"}, "[4]": {"assay": "AUC (0 to infinity) in Rattus norvegicus Sprague-Dawley (rat) at 2 mg/kg, iv", "format": "ADME, organism-based, Plasma", "design": "time infinity, dose 2 mg/kg, route intravenous", "settings": "Sprague-Dawley, plasma"}, "[5]": {"assay": "AUC (0 to infinity) in Rattus norvegicus Sprague-Dawley (rat) at 30 mg/kg, administered intramuscularly", "format": "ADME, organism-based, Plasma", "design": "time infinity, dose 30 mg/kg, route intramuscular", "settings": "Sprague-Dawley, plasma, im"}, "[6]": {"test_system": "Rattus norvegicus", "assay": "Dose normalized AUC in Rattus norvegicus Sprague-Dawley (rat) at 17.5 mg/kg, po", "format": "ADME, organism-based", "design": "dose 17.5 mg/kg, route oral", "settings": "in vivo"}, "[7]": {"assay": "Mean residence time in Rattus norvegicus Sprague-Dawley (rat) at 9 mg/kg, administered intramuscularly", "format": "ADME, organism-based", "design": "dose 9 mg/kg, route intramuscular", "settings": "in vivo, im"}, "[8]": {"assay": "AUC (0 to infinity) in Homo sapiens (human) at 150 mg", "format": "ADME, organism-based", "design": "dose 150 mg, time infinity", "settings": "plasma"}, "[9]": {"assay": "Cmax in Rattus norvegicus Sprague-Dawley (rat) at 17.5 mg/kg, administered intramuscularly", "format": "ADME, organism-based", "design": "dose 17.5 mg/kg, route intramuscular", "settings": "in vivo, im"}, "[10]": {"assay": "Tmax in Macaca mulatta (Rhesus monkey) at 50 mg/kg, po", "format": "ADME, organism-based", "design": "dose 50 mg/kg, route oral", "settings": "in vivo"}, "[11]": {"assay": "Clearance in Rattus norvegicus Sprague-Dawley (rat) at 17.5 mg/kg, administered intramuscularly", "format": "ADME, organism-based", "design": "dose 17.5 mg/kg, route intramuscular", "settings": "Sprague-Dawley, in vivo, im"}, "[12]": {"assay": "Mean residence time in Macaca mulatta (Rhesus monkey) at 50 mg/kg, po", "format": "ADME, organism-based", "design": "dose 50 mg/kg, route oral", "settings": "in vivo"}, "[13]": {"assay": "AUC (0 to infinity) in Rattus norvegicus Sprague-Dawley (rat) at 9 mg/kg, administered intramuscularly", "format": "ADME, organism-based, Plasma", "design": "time infinity, dose 9 mg/kg, route intramuscular", "settings": "Sprague-Dawley, plasma, im"}, "[14]": {"assay": "Clearance in Rattus norvegicus Sprague-Dawley (rat) at 17.5 mg/kg, po", "format": "ADME, organism-based", "design": "dose 17.5 mg/kg, route oral", "settings": "Sprague-Dawley, in vivo"}, "[15]": {"species": "Homo sapiens", "assay": "Dose normalized AUC in Homo sapiens (human) at 150 mg", "format": "ADME, organism-based", "settings": "in vivo"}, "[16]": {"assay": "Elimination half life in Homo sapiens (human) at 150 mg", "format": "ADME, organism-based", "settings": "in vivo, read-out: beta t1/2 (converted)"}, "[17]": {"assay": "Elimination half life in Rattus norvegicus Sprague-Dawley (rat) at 30 mg/kg, po", "format": "ADME, organism-based", "design": "dose 30 mg/kg, route oral", "settings": "in vivo, read-out: beta t1/2 (converted)"}, "[18]": {"assay": "Elimination half life in Macaca mulatta (Rhesus monkey) at 7.5 mg/kg, administered intramuscularly", "format": "ADME, organism-based", "design": "dose 7.5 mg/kg, route intramuscular", "settings": "in vivo, im, read-out: beta t1/2 (converted)"}, "[19]": {"assay": "Elimination half life in Rattus norvegicus Sprague-Dawley (rat) at 2 mg/kg, iv", "format": "ADME, organism-based", "design": "dose 2 mg/kg, route intravenous", "settings": "in vivo, read-out: beta t1/2 (converted)"}, "[20]": {"assay": "Volume of distribution in Homo sapiens (human) at 150 mg", "format": "ADME, organism-based", "settings": "in vivo"}, "[21]": {"assay": "Mean residence time in Rattus norvegicus Sprague-Dawley (rat) at 17.5 mg/kg, administered intramuscularly", "format": "ADME, organism-based", "design": "dose 17.5 mg/kg, route intramuscular", "settings": "in vivo, im"}, "[22]": {"assay": "AUC (0 to infinity) in Macaca mulatta (Rhesus monkey) at 4 mg/kg, iv", "format": "ADME, organism-based, Plasma", "design": "time infinity, dose 4 mg/kg, route intravenous", "settings": "plasma"}, "[23]": {"test_system": "Rattus norvegicus", "assay": "Volume of distribution in Rattus norvegicus Sprague-Dawley (rat) at 30 mg/kg, administered intramuscularly", "format": "ADME, organism-based", "design": "dose 30 mg/kg, route intramuscular", "settings": "in vivo, im"}, "[24]": {"test_system": "Rhesus monkey", "assay": "Volume of distribution in Macaca mulatta (Rhesus monkey) at 7.5 mg/kg, administered intramuscularly", "format": "ADME, organism-based", "design": "dose 7.5 mg/kg, route intramuscular", "settings": "in vivo, im"}, "[25]": {"test_system": "Rhesus monkey", "assay": "Dose normalized AUC in Macaca mulatta (Rhesus monkey) at 7.5 mg/kg, administered intramuscularly", "format": "ADME, organism-based", "design": "dose 7.5 mg/kg, route intramuscular", "settings": "in vivo, im"}, "[26]": {"assay": "AUC (0 to infinity) in Rattus norvegicus Sprague-Dawley (rat) at 9 mg/kg, po", "format": "ADME, organism-based, Plasma", "design": "time infinity, dose 9 mg/kg, route oral", "settings": "Sprague-Dawley, plasma"}, "[27]": {"assay": "Tmax in Rattus norvegicus Sprague-Dawley (rat) at 17.5 mg/kg, po", "format": "ADME, organism-based", "design": "dose 17.5 mg/kg, route oral", "settings": "in vivo"}, "[28]": {"assay": "AUC (0 to infinity) in Macaca mulatta (Rhesus monkey) at 50 mg/kg, po", "format": "ADME, organism-based, Plasma", "design": "time infinity, dose 50 mg/kg, route oral", "settings": "plasma"}, "[29]": {"assay": "Cmax in Macaca mulatta (Rhesus monkey) at 7.5 mg/kg, administered intramuscularly", "format": "ADME, organism-based", "design": "dose 7.5 mg/kg, route intramuscular", "settings": "in vivo, im"}, "[30]": {"test_system": "Rattus norvegicus", "assay": "Dose normalized AUC in Rattus norvegicus Sprague-Dawley (rat) at 9 mg/kg, po", "format": "ADME, organism-based", "design": "dose 9 mg/kg, route oral", "settings": "in vivo"}, "[31]": {"assay": "Cmax in Homo sapiens (human) at 150 mg", "format": "ADME, organism-based", "design": "dose 150 mg", "settings": "in vivo"}, "[32]": {"assay": "Mean residence time in Homo sapiens (human) at 150 mg", "format": "ADME, organism-based", "settings": "in vivo"}, "[33]": {"assay": "Tmax in Rattus norvegicus Sprague-Dawley (rat) at 17.5 mg/kg, administered intramuscularly", "format": "ADME, organism-based", "design": "dose 17.5 mg/kg, route intramuscular", "settings": "in vivo, im"}, "[34]": {"test_system": "Rattus norvegicus", "assay": "Volume of distribution in Rattus norvegicus Sprague-Dawley (rat) at 9 mg/kg, po", "format": "ADME, organism-based", "design": "dose 9 mg/kg, route oral", "settings": "in vivo"}, "[35]": {"test_system": "Rhesus monkey", "assay": "Dose normalized AUC in Macaca mulatta (Rhesus monkey) at 50 mg/kg, po", "format": "ADME, organism-based", "design": "dose 50 mg/kg, route oral", "settings": "in vivo"}, "[36]": {"assay": "Mean residence time in Rattus norvegicus Sprague-Dawley (rat) at 9 mg/kg, po", "format": "ADME, organism-based", "design": "dose 9 mg/kg, route oral", "settings": "in vivo"}, "[37]": {"test_system": "Rattus norvegicus", "assay": "Volume of distribution in Rattus norvegicus Sprague-Dawley (rat) at 17.5 mg/kg, administered intramuscularly", "format": "ADME, organism-based", "design": "dose 17.5 mg/kg, route intramuscular", "settings": "in vivo, im"}, "[38]": {"assay": "Tmax in Homo sapiens (human) at 150 mg", "format": "ADME, organism-based", "settings": "in vivo"}, "[39]": {"assay": "Clearance in Macaca mulatta (Rhesus monkey) at 4 mg/kg, iv", "format": "ADME, organism-based", "design": "dose 4 mg/kg, route intravenous", "settings": "in vivo"}, "[40]": {"assay": "AUC (0 to infinity) in Rattus norvegicus Sprague-Dawley (rat) at 30 mg/kg, po", "format": "ADME, organism-based, Plasma", "design": "time infinity, dose 30 mg/kg, route oral", "settings": "Sprague-Dawley, plasma"}, "[41]": {"assay": "Cmax in Rattus norvegicus Sprague-Dawley (rat) at 17.5 mg/kg, po", "format": "ADME, organism-based", "design": "dose 17.5 mg/kg, route oral", "settings": "in vivo"}}}
{"smiles": "CCO[C@H]1O[C@@H]2O[C@@]3(C)CC[C@H]4[C@H](C)CC[C@@H]([C@H]1C)[C@@]24OO3", "note": "[ARTEMOTIL]", "values": [{"measurement": "CL/F", "setting": "[1]", "value": 86.7, "unit": "mL/min/kg"}, {"measurement": "Tmax", "setting": "[2]", "value": 5, "unit": "min"}, {"measurement": "Cmax", "setting": "[3]", "value": 39.8, "unit": "ng/mL"}, {"measurement": "AUC(0-inf)", "setting": "[4]", "value": 185, "unit": "ng·h/mL"}, {"measurement": "AUC(0-inf)", "setting": "[5]", "value": 407, "unit": "ng·h/mL"}, {"measurement": "AUC/dose", "setting": "[6]", "value": 2.8, "unit": "ng·h/mL"}, {"measurement": "MRT", "setting": "[7]", "value": 40.8, "unit": "h"}, {"measurement": "AUC(0-inf)", "setting": "[8]", "value": 2330, "unit": "ng·h/mL"}, {"measurement": "Cmax", "setting": "[9]", "value": 136, "unit": "ng/mL"}, {"measurement": "Tmax", "setting": "[10]", "value": 0.583, "unit": "h"}, {"measurement": "CL/F", "setting": "[11]", "value": 83.3, "unit": "mL/min/kg"}, {"measurement": "MRT", "setting": "[12]", "value": 5.8, "unit": "h"}, {"measurement": "AUC(0-inf)", "setting": "[13]", "value": 1180, "unit": "ng·h/mL"}, {"measurement": "CL/F", "setting": "[14]", "value": 5060, "unit": "mL/min/kg"}, {"measurement": "AUC/dose", "setting": "[15]", "value": 1315.7, "unit": "ng·h/mL"}, {"measurement": "half-life", "setting": "[16]", "value": 30.2, "unit": "h"}, {"measurement": "half-life", "setting": "[17]", "value": 2.8, "unit": "h"}, {"measurement": "half-life", "setting": "[18]", "value": 19.1, "unit": "h"}, {"measurement": "half-life", "setting": "[19]", "value": 0.85, "unit": "h"}, {"measurement": "Vd", "setting": "[20]", "value": 36.2, "unit": "L/kg"}, {"measurement": "MRT", "setting": "[21]", "value": 33.2, "unit": "h"}, {"measurement": "AUC(0-inf)", "setting": "[22]", "value": 1220, "unit": "ng·h/mL"}, {"measurement": "Vd", "setting": "[23]", "value": 1660.6, "unit": "L/kg"}, {"measurement": "Vd", "setting": "[24]", "value": 197.2, "unit": "L/kg"}, {"measurement": "AUC/dose", "setting": "[25]", "value": 142.2, "unit": "ng·h/mL"}, {"measurement": "AUC(0-inf)", "setting": "[26]", "value": 46.8, "unit": "ng·h/mL"}, {"measurement": "Tmax", "setting": "[27]", "value": 5, "unit": "min"}, {"measurement": "AUC(0-inf)", "setting": "[28]", "value": 8.5, "unit": "ng·h/mL"}, {"measurement": "Cmax", "setting": "[29]", "value": 45.2, "unit": "ng/mL"}, {"measurement": "AUC/dose", "setting": "[30]", "value": 7.4, "unit": "ng·h/mL"}, {"measurement": "Cmax", "setting": "[31]", "value": 49.8, "unit": "ng/mL"}, {"measurement": "MRT", "setting": "[32]", "value": 47.4, "unit": "h"}, {"measurement": "Tmax", "setting": "[33]", "value": 0.5, "unit": "h"}, {"measurement": "Vd", "setting": "[34]", "value": 770.8, "unit": "L/kg"}, {"measurement": "AUC/dose", "setting": "[35]", "value": 0.2, "unit": "ng·h/mL"}, {"measurement": "MRT", "setting": "[36]", "value": 6.7, "unit": "h"}, {"measurement": "Vd", "setting": "[37]", "value": 198.7, "unit": "L/kg"}, {"measurement": "Tmax", "setting": "[38]", "value": 6.9, "unit": "min"}, {"measurement": "clearance", "setting": "[39]", "value": 38.3, "unit": "mL/min/kg"}, {"measurement": "AUC(0-inf)", "setting": "[40]", "value": 25.6, "unit": "ng·h/mL"}, {"measurement": "Cmax", "setting": "[41]", "value": 8.1, "unit": "ng/mL"}]}
